Data taken from US10457654B2 (GENENTECH, INC., priority 2017, dated 2019).
Structures can show the parent of a compound that is named as a salt.

Experiments:
hNav1.7 [1] = target: T1, hNav1.7 (Homo sapiens (Human), UniProt Q15858); assay: Patch voltage clamp electrophysiology assay (EP), Syncropatch 384PE, CHO cells expressing Nav1.7; format: cell-based; settings: holding potential -50 mV; […] compound incubation; read-out: EP_SP hNav1.7 (Ex. 243B) IC50
Experimental: Electrophysiological Assay (EP) (In Vitro Assay)
The following voltage clamp electrophysiology studies were performed on representative compounds using cells heterologously expressing Nav1.7 or Nav1.5 channels. cDNAs for Nav1.7 (NM_002977) and Nav1.5 (AC137587) were stably expressed in Chinese Hamstr Ovary (CHO) cells and CHL (Chinese Hamster Lung) cells respectively. […] Internal solution consists of (in mM): 110 […], 10 […], 20 EGTA, and 10 Hepes (pH adjusted to 7.2); and external solution contains (in mM): 60 NMDG, 80 NaCl, 4 KCl, 1 MgCl2, 2 CaCl2, 2 D-Glucose monohydrate, 10 Hepes (pH adjusted to 7.4 with NaOH).
The chip is moved into the measuring head and the instrument primes the chip with external and internal solutions. […] cells are added to the chip from a cell hotel, and a negative pressure of −50 mBar is applied to form a seal. Following treatment with seal enhancer solution and wash-off with external solution, negative pressure of −250 mbar is applied for 1 second to achieve the whole-cell configuration, followed by three washing steps in external solution. 20 μl of compounds is added to 40 μl in each well (1:3 dilution of compounds), and after mixing, 20 μl is removed so the volume is retained at 40 μl.
For voltage protocol, an holding potential of −50 mV is applied during the whole experiment. A depolarizing step is applied to −10 mV for 10 ms, followed by a hyperpolarization step to −150 mV for 20 ms to allow channel recovery from inactivation. A second depolarizing step is applied from −150 mV to −10 mV for 10 ms, where currents were measured to derive blocking effects of compounds. Inhibition is determined based on 7.5 min of compound incubation.
Target sequence in this assay (Q15858 other isoform, or with tags, fused parts or gaps): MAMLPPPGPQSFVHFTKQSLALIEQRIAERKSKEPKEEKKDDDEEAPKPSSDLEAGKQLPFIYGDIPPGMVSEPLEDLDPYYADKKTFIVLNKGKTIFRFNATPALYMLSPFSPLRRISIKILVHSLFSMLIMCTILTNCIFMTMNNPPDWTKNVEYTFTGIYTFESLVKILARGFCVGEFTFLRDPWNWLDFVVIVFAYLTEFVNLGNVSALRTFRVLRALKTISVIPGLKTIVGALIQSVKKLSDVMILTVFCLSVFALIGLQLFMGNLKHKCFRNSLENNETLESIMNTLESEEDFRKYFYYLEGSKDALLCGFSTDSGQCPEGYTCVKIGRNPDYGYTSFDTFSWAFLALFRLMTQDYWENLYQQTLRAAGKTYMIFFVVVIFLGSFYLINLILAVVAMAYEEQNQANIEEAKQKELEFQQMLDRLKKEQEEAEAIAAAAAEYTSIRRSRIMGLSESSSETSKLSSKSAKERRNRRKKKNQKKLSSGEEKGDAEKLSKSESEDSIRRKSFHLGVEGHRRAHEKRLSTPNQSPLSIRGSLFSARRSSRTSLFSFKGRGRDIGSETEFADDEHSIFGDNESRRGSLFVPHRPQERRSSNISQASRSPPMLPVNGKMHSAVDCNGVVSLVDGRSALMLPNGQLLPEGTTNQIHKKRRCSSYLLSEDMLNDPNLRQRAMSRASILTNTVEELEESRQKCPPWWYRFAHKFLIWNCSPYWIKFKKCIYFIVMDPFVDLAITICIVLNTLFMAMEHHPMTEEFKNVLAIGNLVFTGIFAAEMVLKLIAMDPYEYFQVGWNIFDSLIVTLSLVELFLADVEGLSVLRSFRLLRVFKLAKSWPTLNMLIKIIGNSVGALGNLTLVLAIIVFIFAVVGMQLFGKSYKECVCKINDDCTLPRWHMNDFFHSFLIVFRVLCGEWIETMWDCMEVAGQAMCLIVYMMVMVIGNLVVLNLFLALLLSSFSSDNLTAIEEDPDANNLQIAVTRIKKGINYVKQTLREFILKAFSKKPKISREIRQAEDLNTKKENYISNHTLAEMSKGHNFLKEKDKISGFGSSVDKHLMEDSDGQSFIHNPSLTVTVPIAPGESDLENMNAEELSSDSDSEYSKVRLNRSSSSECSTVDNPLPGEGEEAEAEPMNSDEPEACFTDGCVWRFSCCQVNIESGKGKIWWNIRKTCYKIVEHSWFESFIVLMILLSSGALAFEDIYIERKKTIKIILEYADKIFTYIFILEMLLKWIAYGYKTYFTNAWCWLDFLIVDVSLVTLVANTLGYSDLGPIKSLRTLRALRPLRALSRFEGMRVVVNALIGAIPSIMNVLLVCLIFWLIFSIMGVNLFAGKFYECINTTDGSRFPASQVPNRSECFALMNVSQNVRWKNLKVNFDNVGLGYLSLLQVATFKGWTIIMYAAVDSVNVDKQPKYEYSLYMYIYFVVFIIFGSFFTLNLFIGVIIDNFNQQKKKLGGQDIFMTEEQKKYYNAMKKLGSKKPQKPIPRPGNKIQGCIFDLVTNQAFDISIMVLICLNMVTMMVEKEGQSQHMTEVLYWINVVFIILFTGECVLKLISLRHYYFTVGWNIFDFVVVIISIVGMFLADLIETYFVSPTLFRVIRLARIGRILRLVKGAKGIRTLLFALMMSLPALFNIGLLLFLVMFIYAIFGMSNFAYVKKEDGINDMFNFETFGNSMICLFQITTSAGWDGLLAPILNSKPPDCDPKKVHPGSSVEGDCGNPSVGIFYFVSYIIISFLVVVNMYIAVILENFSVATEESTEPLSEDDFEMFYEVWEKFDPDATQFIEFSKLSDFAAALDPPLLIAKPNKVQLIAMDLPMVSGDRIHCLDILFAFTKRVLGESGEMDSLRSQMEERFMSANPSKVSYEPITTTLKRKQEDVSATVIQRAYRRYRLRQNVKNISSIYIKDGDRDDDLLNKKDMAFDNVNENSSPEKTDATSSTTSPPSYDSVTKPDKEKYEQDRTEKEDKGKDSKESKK

hNav1.7 [2] = target: T1, hNav1.7; assay: Tritiated compound binding to membranes from cells expressing hNav1.7 and the β1 subunit, modified protocol (LBA, Ex. 243B); settings: 300 pM [3H]compound, room temperature, read-out: Nav1.7 LBA (Ex. 243B) IC50
Target sequence in this assay (Q15858 whole entry, looked up): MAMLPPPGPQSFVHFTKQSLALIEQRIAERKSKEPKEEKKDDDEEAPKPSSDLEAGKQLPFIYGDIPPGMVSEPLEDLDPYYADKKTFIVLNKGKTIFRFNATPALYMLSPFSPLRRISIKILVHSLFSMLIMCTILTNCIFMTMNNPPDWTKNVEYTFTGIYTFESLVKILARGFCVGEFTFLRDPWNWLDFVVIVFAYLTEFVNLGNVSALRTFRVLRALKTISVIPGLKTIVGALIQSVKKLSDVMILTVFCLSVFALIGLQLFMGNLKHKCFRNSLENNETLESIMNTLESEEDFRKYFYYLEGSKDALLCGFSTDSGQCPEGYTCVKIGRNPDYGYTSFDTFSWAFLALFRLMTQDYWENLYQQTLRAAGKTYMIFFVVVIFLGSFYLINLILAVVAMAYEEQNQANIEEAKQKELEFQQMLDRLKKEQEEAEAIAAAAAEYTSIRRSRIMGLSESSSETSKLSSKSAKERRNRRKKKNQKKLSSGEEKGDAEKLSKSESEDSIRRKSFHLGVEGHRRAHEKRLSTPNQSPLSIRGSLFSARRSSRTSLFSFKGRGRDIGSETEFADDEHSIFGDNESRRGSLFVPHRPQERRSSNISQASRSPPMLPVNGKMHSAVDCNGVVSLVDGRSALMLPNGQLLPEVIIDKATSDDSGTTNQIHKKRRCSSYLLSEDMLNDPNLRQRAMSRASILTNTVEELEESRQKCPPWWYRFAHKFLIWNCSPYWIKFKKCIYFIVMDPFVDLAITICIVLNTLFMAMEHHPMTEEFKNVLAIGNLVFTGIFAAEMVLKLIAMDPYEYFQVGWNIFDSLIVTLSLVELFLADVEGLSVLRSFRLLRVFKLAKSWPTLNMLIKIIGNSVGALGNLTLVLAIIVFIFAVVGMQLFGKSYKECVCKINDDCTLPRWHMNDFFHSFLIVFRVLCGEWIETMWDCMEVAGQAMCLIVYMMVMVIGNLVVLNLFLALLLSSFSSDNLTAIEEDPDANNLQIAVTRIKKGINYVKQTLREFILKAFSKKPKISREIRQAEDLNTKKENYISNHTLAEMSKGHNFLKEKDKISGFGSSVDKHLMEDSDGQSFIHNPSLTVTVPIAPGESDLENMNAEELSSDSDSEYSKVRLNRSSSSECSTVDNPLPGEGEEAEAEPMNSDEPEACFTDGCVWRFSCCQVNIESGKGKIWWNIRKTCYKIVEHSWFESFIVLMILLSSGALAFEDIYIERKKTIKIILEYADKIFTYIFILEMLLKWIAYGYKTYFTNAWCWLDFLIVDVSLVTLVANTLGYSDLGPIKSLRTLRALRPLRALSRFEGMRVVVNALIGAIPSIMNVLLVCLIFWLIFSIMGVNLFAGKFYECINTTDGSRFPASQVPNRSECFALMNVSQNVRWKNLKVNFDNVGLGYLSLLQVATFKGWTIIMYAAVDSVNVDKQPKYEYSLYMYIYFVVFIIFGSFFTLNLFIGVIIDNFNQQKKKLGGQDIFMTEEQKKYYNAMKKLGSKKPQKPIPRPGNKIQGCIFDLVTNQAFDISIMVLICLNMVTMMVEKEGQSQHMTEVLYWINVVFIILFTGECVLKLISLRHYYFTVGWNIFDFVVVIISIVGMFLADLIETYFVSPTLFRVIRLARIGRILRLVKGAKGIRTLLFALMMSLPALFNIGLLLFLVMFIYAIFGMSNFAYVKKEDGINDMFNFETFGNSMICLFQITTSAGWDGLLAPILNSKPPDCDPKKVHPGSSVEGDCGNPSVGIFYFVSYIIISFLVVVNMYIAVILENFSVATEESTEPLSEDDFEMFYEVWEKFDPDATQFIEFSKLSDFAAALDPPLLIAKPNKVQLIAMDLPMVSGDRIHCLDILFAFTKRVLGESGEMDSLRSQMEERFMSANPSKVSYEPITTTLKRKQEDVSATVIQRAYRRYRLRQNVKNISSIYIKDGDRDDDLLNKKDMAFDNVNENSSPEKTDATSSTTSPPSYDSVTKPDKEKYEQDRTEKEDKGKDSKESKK
Target sequence in this assay (Q07699 whole entry partner, looked up): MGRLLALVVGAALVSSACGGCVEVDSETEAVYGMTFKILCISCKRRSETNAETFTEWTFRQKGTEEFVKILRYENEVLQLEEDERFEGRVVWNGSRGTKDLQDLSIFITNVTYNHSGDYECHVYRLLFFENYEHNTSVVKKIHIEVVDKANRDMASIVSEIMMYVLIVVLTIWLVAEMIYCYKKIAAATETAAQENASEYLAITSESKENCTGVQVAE

Row | Compound | IC50 (hNav1.7 [1]) [nM] | IC50 (hNav1.7 [2]) [nM]
1 | CN(CC(C)(C)O)[C@H]1CCCC[C@@H]1Nc1cc(F)c(S(=O)(=O)Nc2nccs2)cc1Cl [Example 116, 5-Chloro-2-fluoro-4-(((1S,2S)-2-((2-hydroxy-2-methylpropyl)(methyl)amino)cyclohexyl)amino)-N-(thiazol-2-yl)benzenesulfonamide formate] | 18.2 | 307
2 | CN(C[C@@H](O)C1CC1)[C@H]1CCCC[C@@H]1Nc1cc(F)c(S(=O)(=O)Nc2nccs2)cc1Cl [Example 139, 5-Chloro-4-(((1S,2S)-2-(((S)-2-cyclopropyl-2-hydroxyethyl)(methyl)amino)cyclohexyl)amino)-2-fluoro-N-(thiazol-2-yl)benzenesulfonamide] | 45.6 | 291
3 | CN(C)[C@H]1CCC(c2ccccc2F)C[C@@H]1Nc1cc(F)c(S(=O)(=O)Nc2nccs2)cc1Cl (stereo in doubt) [Example 173, 5-chloro-4-(((1S,2S,5R)-2-(dimethylamino)-5-(2-fluorophenyl)cyclohexyl)amino)-2-fluoro-N-(thiazol-2-yl)benzenesulfonamide] | 2.6 | 17.7
4 | CN(C)[C@H]1CC(F)(F)CC[C@@H]1Nc1cc(F)c(S(=O)(=O)Nc2nccs2)cc1Cl [Example 187, 5-chloro-4-(((1S,2S)-2-(dimethylamino)-4,4-difluorocyclohexyl)amino)-2-fluoro-N-(thiazol-2-yl)benzenesulfonamide formate] | 7.65 | 776
5 | O=S(=O)(Nc1nccs1)c1cc(Cl)c(N[C@H]2CCCC[C@@H]2N2CCC[C@@](F)(CO)C2)cc1F [Example 213, 5-Chloro-2-fluoro-4-(((1S,2S)-2-((S)-3-fluoro-3-(hydroxymethyl)piperidin-1-yl)cyclohexyl)amino)-N-(thiazol-2-yl)benzenesulfonamide] | 13.9 | 218
6 | O=S(=O)(Nc1nccs1)c1cc(Cl)c(N[C@H]2CCCC[C@@H]2N2CCC[C@H]2CO)cc1F [Example 134, 5-chloro-2-fluoro-4-(((1S,2S)-2-((S)-2-(hydroxymethyl)pyrrolidin-1-yl)cyclohexyl)amino)-N-(thiazol-2-yl)benzenesulfonamide] | 18.6 | 279
7 | CC(C)CC(=O)N1CC(N(C)[C@H]2CCCC[C@@H]2Nc2cc(F)c(S(=O)(=O)Nc3nccs3)cc2Cl)C1 [Example 147, 5-Chloro-2-fluoro-4-(((1S,2S)-2-(methyl(1-(3-methylbutanoyl)azetidin-3-yl)amino)cyclohexyl)amino)-N-(thiazol-2-yl)benzenesulfonamide] | 27.2 | 275
8 | CCN(C)[C@H]1CCCC[C@@H]1N1CCOc2cc(S(=O)(=O)Nc3nccs3)c(F)cc21 (racemic) [Example 189, 4-((trans)-2-(ethyl(methyl)amino)cyclohexyl)-6-fluoro-N-(thiazol-2-yl)-3,4-dihydro-2H-benzo[b][1,4]oxazine-7-sulfonamide] | 23.4 | 304
9 | CN(C)[C@H]1C[C@@H](c2cccc(Cl)c2)CC[C@@H]1Nc1cc(F)c(S(=O)(=O)Nc2ccncn2)cc1Cl [Example 231, 5-Chloro-4-(((1S,2S,4S)-4-(3-chlorophenyl)-2-(dimethylamino)cyclohexyl)amino)-2-fluoro-N-(pyrimidin-4-yl)benzenesulfonamide formate] | 0.933 | 2.22
10 | CN1CC(C(=O)N(C)[C@H]2CCCC[C@@H]2Nc2cc(F)c(S(=O)(=O)Nc3nccs3)cc2Cl)C1 [Example 179, N-((1S,2S)-2-((2-Chloro-5-fluoro-4-(N-(thiazol-2-yl)sulfamoyl)phenyl)amino)cyclohexyl)-N,1-dimethylazetidine-3-carboxamide] | 6.83 | 270
11 | CN(C[C@H](O)C1CC1)[C@H]1CCCC[C@@H]1Nc1cc(F)c(S(=O)(=O)Nc2nccs2)cc1Cl [Example 143, 5-Chloro-4-(((1S,2S)-2-(((R)-2-cyclopropyl-2-hydroxyethyl)(methyl)amino)cyclohexyl)amino)-2-fluoro-N-(thiazol-2-yl)benzenesulfonamide] | 19.3 | 418
12 | CN(C)[C@H]1C[C@@H](c2ccccc2)CC[C@@H]1Nc1cc(F)c(S(=O)(=O)Nc2ccncn2)cc1Cl [Example 232, 5-chloro-4-(((1S,2S,4S)-2-(dimethyamino)-4-phenylcyclohexyl)amino)-2-fluoro-N-(pyrimidin-4-yl)benzenesulfonamide formate] | 10.5 | 47.8
13 | C[N+](C)([O-])[C@H]1C[C@@H](c2cccc(C(F)(F)F)c2)CC[C@@H]1Nc1cc(F)c(S(=O)(=O)Nc2ccncn2)cc1Cl [Example 235, (1S,2S,5S)-2-((2-Chloro-5-fluoro-4-(N-(pyrimidin-4-yl)sulfamoyl)phenyl)amino)-N,N-dimethyl-5-(3-(trifluoromethyl)phenyl)cyclohexanamine oxide] | 8.14 | 11.8
14 | CN(C)[C@@H]1Cc2ccccc2C[C@H]1Nc1cc(F)c(S(=O)(=O)Nc2nccs2)cc1Cl [Example 164, 5-Chloro-4-(((2R,3R)-3-(dimethylamino)-1,2,3,4-tetrahydronaphthalen-2-yl)amino)-2-fluoro-N-(thiazol-2-yl)benzenesulfonamide] | 7.43 | 53.4
15 | CN(C)[C@@H]1CCCCC[C@H]1Nc1cc(F)c(S(=O)(=O)Nc2nccs2)cc1Cl [Example 145, 5-chloro-4-(((1R,2R)-2-(dimethylamino)cycloheptyl)amino)-2-fluoro-N-(thiazol-2-yl)benzenesulfonamide formate] | 395 | 2000
16 | CN(C)[C@H]1C[C@@H](c2cccc(C(F)(F)F)c2)CC[C@@H]1Nc1ccc(S(=O)(=O)Nc2ccncn2)c(F)c1 [Example 237, 4-(((1S,2S,4S)-2-(Dimethylamino)-4-(3-(trifluoromethyl)phenyl)cyclohexyl)amino)-2-fluoro-N-(pyrimidin-4-yl)benzenesulfonamide formate] | 1.07 | 2.43
17 | CN1CCN([C@H]2CCCC[C@@H]2Nc2cc(F)c(S(=O)(=O)Nc3nccs3)cc2Cl)CC1 [Example 163, 5-Chloro-2-fluoro-4-(((1S,2S)-2-(4-methylpiperazin-1-yl)cyclohexyl)amino)-N-(thiazol-2-yl)benzenesulfonamide] | 18.1 | 201
18 | CN(C)[C@H]1CC2C(C[C@@H]1Nc1cc(F)c(S(=O)(=O)Nc3nccs3)cc1Cl)C2(F)F (stereo in doubt) [Example 207, 5-Chloro-4-(((1S,3S,4S,6R)-4-(dimethylamino)-7,7-difluorobicyclo[4.1.0]heptan-3-yl)amino)-2-fluoro-N-(thiazol-2-yl)benzenesulfonamide] | 203 | 1600
19 | CCN(C)[C@H]1CCCC[C@@H]1Nc1cc(F)c(S(=O)(=O)Nc2nc(C)cs2)cc1Cl [Example 102, 5-chloro-4-(((1S,2S)-2-(ethyl(methyl)amino)cyclohexyl)amino)-2-fluoro-N-(4-methylthiazol-2-yl)benzenesulfonamide formate] | 66.5 | 424
20 | 5-Chloro-4-(((1S,2S)-2-(cyclobutyl(methyl)amino)cyclohexyl)amino)-2-fluoro-N-(thiazol-2-yl)benzenesulfonamide formate [Example 115] | 3.29 | 18
